This experiment addresses Ubiquitin carboxyl-terminal hydrolase 1/WD repeat-containing protein 48 (Homo sapiens, UniProt O94782). Nature of the experiment: Not found.

For 1 molecule, IC50 results are on record in BindingDB's records for patent US20240409538 (Impact Therapeutics (Shanghai), 2024).

Sequence of Ubiquitin carboxyl-terminal hydrolase 1/WD repeat-containing protein 48 (O94782 whole entry): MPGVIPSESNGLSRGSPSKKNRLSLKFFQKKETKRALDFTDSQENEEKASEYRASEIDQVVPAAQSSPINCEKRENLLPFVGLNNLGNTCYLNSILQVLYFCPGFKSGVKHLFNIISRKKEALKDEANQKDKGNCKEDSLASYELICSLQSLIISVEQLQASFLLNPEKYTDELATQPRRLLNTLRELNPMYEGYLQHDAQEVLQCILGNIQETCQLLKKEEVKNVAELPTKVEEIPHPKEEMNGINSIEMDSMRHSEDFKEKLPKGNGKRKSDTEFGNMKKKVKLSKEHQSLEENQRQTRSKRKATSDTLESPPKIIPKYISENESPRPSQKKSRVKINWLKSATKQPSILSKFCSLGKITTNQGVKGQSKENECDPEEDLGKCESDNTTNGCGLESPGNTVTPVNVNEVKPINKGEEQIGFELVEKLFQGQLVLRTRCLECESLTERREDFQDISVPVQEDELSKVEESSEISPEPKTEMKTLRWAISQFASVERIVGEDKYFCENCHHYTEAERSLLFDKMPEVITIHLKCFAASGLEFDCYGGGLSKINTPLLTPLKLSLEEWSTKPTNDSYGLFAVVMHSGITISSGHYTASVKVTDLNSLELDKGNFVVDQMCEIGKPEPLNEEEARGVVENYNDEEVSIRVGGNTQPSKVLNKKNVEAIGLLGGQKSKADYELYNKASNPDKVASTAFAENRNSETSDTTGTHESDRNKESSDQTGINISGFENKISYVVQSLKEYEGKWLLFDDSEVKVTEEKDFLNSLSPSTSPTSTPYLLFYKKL
Sequence of Ubiquitin carboxyl-terminal hydrolase 1/WD repeat-containing protein 48 (Q8TAF3 whole entry, further chain): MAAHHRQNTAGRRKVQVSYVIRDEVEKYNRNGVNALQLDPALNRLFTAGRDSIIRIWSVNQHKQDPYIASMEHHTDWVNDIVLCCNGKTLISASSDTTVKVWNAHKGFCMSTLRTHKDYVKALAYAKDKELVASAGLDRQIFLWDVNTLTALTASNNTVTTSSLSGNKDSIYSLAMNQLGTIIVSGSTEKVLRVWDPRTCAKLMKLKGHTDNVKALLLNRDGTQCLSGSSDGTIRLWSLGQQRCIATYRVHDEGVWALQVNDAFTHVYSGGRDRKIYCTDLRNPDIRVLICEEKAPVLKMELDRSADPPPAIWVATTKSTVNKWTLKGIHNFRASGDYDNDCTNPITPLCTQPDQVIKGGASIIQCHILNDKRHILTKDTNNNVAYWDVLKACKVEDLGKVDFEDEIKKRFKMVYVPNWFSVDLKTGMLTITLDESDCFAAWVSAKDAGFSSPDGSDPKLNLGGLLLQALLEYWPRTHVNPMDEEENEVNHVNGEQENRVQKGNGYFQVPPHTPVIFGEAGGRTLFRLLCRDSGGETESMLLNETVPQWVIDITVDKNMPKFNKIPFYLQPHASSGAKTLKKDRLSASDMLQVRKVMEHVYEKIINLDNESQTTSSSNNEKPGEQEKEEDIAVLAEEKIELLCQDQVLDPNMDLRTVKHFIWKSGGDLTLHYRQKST

Consider `COc1ncnc(OC)c1-c1nc2c(Cc3ccc(-c4nc(C(F)(F)F)cn4C)cc3)cccn2n1` [US20240409538, Example 27], for which the half-maximal inhibitory concentration (IC50) is 77.5 nM.

By IC50 is commonly meant the concentration at which inhibition is half-maximal.
